Literature values in patent US20240366754A1, “PHARMACEUTICAL COMPOSITIONS FOR DELIVERY OF VIRAL ANTIGENS AND RELATED METHODS” (BioNTech SE, priority 2021, published 2024).
“Also recorded” adds a separate entry of the source. Where two headings read alike, the source gives them in different places.

What was measured:
norovirus = conditions: in vivo

| SMILES | Most common adverse effects (Oral formulations) | Most common adverse effects (Intravenous formulations) | effect on norovirus illness (norovirus) |
| --- | --- | --- | --- |
| CC(=O)OCC(CCn1cnc2cnc(N)nc21)COC(C)=O [famciclovir] | headache, nausea,; also recorded: fatigue, diarrhea | – | – |
| O=C(O)P(=O)(O)O [foscarnet] | – | fever, headache,; also recorded: renal dysfunction,; also recorded: electrolyte; also recorded: abnormalities,; also recorded: nausea, vomiting; also recorded: diarrhea, anemia,; also recorded: granulocytopenia | – |
| CC(=O)Oc1ccccc1C(=O)Nc1ncc([N+](=O)[O-])s1 [nitazoxanide] | – | – | reduce the duration of illness |
| Nc1nc2c(ncn2COCCO)c(=O)[nH]1 [acyclovir] | malaise, headache,; also recorded: nausea, vomiting | phlebitis, acute renal; also recorded: failure, nausea,; also recorded: vomiting, rash | – |
| CC(C)[C@H](N)C(=O)OCCOCn1cnc2c(=O)[nH]c(N)nc21 [valacyclovir] | headache, nausea,; also recorded: abdominal pain | – | – |
